Data as given in patent US11226337B2, “Chemoproteomic profiling of protein electrophilic and oxidative post-translational modifications” (Zenagem, LLC, priority 2017, dated 2022).

Legend:
Test in all cases: SILAC RP-ABPP
Assay type in all cases: cell-based
[1] = molecular target: T1, P4HA1 Prolyl 4hydroxylase subunit alpha1 (P13674) (Homo sapiens, UniProt P13674); conditions: SILAC H/L, MDA-MB-231
T1 construct: In Situ Labelling of Cells with Hydrazine Probes for MS Experiments; endogenous in cells
T1 sequence (P13674 18-534): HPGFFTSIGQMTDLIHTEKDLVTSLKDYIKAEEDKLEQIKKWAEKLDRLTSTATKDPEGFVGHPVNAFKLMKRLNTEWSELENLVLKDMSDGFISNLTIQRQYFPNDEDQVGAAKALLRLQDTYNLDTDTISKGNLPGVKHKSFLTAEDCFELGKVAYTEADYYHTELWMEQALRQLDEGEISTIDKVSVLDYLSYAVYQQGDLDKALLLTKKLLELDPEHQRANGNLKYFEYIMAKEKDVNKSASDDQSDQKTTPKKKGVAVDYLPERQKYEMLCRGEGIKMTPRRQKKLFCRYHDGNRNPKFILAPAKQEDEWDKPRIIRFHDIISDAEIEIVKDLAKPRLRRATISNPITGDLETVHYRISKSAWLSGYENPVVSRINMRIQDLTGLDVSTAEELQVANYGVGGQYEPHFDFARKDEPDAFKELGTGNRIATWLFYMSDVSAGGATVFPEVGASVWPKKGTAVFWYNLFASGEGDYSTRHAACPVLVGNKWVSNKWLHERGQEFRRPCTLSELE
T1 sequence (P07237 18-508 partner): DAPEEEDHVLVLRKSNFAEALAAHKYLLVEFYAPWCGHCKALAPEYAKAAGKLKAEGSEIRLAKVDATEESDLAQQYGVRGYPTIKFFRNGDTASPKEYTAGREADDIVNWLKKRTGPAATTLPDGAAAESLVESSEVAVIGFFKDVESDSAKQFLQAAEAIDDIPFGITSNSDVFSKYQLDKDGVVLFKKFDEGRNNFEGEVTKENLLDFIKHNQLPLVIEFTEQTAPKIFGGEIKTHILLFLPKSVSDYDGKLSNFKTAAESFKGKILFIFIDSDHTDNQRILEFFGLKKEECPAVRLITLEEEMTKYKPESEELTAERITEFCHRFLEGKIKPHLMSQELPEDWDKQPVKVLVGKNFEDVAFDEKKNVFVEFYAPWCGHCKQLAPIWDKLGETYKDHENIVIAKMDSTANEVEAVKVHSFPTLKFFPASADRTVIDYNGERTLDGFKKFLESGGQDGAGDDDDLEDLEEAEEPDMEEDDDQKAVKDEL

[2] = molecular target: T2, PLOD1 Procollagenlysine, 2oxoglutarate (Q02809) (Homo sapiens, UniProt Q02809); conditions: SILAC H/L, MDA-MB-231
T2 construct: In Situ Labelling of Cells with Hydrazine Probes for MS Experiments; endogenous in cells
T2 sequence (Q02809 19-727): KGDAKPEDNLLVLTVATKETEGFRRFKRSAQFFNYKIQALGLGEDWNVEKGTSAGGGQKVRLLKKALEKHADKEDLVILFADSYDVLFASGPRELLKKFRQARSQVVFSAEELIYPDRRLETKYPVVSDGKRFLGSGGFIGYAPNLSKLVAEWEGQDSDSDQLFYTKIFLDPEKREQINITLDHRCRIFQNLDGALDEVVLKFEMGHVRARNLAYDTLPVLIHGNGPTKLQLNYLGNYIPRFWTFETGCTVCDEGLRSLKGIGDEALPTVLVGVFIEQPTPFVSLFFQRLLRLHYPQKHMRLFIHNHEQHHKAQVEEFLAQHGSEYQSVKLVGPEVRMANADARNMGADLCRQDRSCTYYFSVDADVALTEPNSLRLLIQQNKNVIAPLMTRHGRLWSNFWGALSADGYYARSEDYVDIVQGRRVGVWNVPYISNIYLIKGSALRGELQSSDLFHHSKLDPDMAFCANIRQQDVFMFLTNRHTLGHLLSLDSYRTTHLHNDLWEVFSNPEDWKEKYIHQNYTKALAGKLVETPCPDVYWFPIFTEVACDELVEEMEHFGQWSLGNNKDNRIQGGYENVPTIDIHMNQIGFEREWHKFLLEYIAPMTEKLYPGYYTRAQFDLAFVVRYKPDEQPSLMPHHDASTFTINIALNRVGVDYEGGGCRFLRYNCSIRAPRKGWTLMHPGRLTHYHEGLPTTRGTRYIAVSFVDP

[3] = molecular target: T3, RARS2 Probable arginine tRNA ligase (Q5T160) (Homo sapiens, UniProt Q5T160); conditions: SILAC H/L
T3 construct: shared by both the endogenous and recombinant forms of these proteins; endogenous in cells; host or cells: HEK293T and MDA-MB-231
T3 sequence (Q5T160 17-578): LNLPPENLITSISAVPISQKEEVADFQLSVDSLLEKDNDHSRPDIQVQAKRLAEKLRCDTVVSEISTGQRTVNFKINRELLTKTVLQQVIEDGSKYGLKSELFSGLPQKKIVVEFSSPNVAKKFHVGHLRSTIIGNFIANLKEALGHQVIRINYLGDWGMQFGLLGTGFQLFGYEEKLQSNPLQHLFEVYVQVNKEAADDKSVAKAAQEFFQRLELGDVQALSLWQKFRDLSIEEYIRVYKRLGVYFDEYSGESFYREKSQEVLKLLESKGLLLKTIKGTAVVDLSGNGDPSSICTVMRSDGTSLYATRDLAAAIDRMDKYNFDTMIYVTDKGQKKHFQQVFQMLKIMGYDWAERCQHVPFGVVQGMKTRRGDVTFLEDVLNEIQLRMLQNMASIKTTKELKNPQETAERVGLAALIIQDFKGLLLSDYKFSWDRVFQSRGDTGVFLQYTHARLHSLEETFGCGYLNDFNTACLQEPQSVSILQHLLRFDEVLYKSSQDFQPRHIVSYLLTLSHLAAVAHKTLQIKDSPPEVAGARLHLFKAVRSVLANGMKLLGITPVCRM

[4] = molecular target: T4, SERPINE1 Plasminogen activator inhibitor 1 (P05121) (Homo sapiens, UniProt P05121); conditions: SILAC H/L, MDA-MB-231
T4 construct: In Situ Labelling of Cells with Hydrazine Probes for MS Experiments; endogenous in cells
T4 sequence (P05121 24-402): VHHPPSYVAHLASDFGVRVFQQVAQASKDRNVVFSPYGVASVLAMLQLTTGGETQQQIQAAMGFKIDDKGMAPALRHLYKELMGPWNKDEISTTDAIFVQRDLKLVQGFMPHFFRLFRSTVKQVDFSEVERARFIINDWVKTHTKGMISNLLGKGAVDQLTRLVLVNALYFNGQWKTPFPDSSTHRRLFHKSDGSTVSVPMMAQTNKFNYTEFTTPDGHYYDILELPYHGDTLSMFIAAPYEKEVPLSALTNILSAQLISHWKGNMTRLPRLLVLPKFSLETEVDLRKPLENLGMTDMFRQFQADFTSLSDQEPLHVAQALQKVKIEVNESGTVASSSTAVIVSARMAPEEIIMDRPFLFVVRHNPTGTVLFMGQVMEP

SMILES	enrichment ratioavg ([1]; probe 1 3 mM 0.5 h vs probe 3)	competition ratioavg ([1]; probe 1 vs probe 1+10x probe 3)	enrichment ratioavg ([2]; probe 1 3 mM 0.5 h vs probe 3)	competition ratioavg ([2]; probe 1 vs probe 1+10x probe 3)	enrichment ratioavg ([3]; probe 1 3 mM 0.5 h vs probe 3, HEK293T)	competition ratioavg ([3]; probe 1 vs probe 1+10x probe 3, HEK293T)	enrichment ratioavg ([4]; probe 1 3 mM 0.5 h vs probe 3)	competition ratioavg ([4]; probe 1 vs probe 1+10x probe 3)	enrichment ratioavg ([1]; probe 2 1 mM 0.5 h vs probe 4)	competition ratioavg ([1]; probe 2 vs probe 2+10x probe 4)	enrichment ratioavg ([2]; probe 2 1 mM 0.5 h vs probe 4)	competition ratioavg ([2]; probe 2 vs probe 2+10x probe 4)	competition ratioavg ([3]; probe 2 vs probe 2+10x probe 4, cell line not given)	enrichment ratioavg ([4]; probe 2 1 mM 0.5 h vs probe 4)	competition ratioavg ([4]; probe 2 vs probe 2+10x probe 4)
C#CCNN.Cl [probe 1, prop-2-yn-1-ylhydrazine hydrochloride]	15	2	6	3	16	4	17	3							
C#CCCNC(=O)c1ccc(NN)cc1.Cl [probe 2, N-(but-3-yn-1-yl)-4-hydrazinylbenzamide hydrochloride]									8	3	8	3	3	20	3
